# In BindingDB's records for doi:10.1016/s0960-894x(02)00602-9 (Bayer, 2002):
# How the values were obtained:
# [1] = Concentration required to inhibit human recombinant Poly (ADP-ribose) polymerase 1 was determined using cell protection assay
# [2] = as above; remark: listed apart in the source
# [3] = Concentration required to inhibit human recombinant PARP-1 was determined using cell protection assay
SMILES,EC50 [1] [nM],EC50 [3] [nM],also measured
"O=C(CCn1c2c(c(=O)[nH]c1=O)CSCC2)NCC(=O)N1CCN(c2ccccc2)CC1 [3-(2,4-Dioxo-3,4,7,8-tetrahydro-2H,5H-thiopyrano[4,3-d]pyrimidin-1-yl)-N-[2-oxo-2-(4-phenyl-piperazin-1-yl)-ethyl]-propionamide]",,,EC50 [2]: 100 nM
"O=C(CCn1c2c(c(=O)[nH]c1=O)CSCC2)NCC(=O)N1CCN(c2ncccc2C(F)(F)F)CC1 [3-(2,4-Dioxo-3,4,7,8-tetrahydro-2H,5H-thiopyrano[4,3-d]pyrimidin-1-yl)-N-{2-oxo-2-[4-(3-trifluoromethyl-pyridin-2-yl)-piperazin-1-yl]-ethyl}-propionamide]",,100,
"O=C(CCn1c2c(c(=O)[nH]c1=O)CSCC2)NCC(=O)N1CCN(c2cc(C(F)(F)F)ccn2)CC1 [3-(2,4-Dioxo-3,4,7,8-tetrahydro-2H,5H-thiopyrano[4,3-d]pyrimidin-1-yl)-N-{2-oxo-2-[4-(4-trifluoromethyl-pyridin-2-yl)-piperazin-1-yl]-ethyl}-propionamide]",100,,
"COc1ccc(C(=O)CNC(=O)CCn2c3c(c(=O)[nH]c2=O)CSCC3)cc1 [3-(2,4-dioxo-2,3,4,5,7,8-hexahydro-1H-thiopyrano[4,3-d]pyrimidin-1-yl)-N-(2-(4-methoxyphenyl)-2-oxoethyl)propanamide]",,80,
"O=C(CCn1c2c(c(=O)[nH]c1=O)CSCC2)NCC(=O)c1ccc(-c2ccccc2)cc1 [N-(2-Biphenyl-4-yl-2-oxo-ethyl)-3-(2,4-dioxo-3,4,7,8-tetrahydro-2H,5H-thiopyrano[4,3-d]pyrimidin-1-yl)-propionamide]",,500,
"O=C(CCn1c2c(c(=O)[nH]c1=O)CSCC2)NCC(=O)c1ccc(OC(F)F)cc1 [N-[2-(4-Difluoromethoxy-phenyl)-2-oxo-ethyl]-3-(2,4-dioxo-3,4,7,8-tetrahydro-2H,5H-thiopyrano[4,3-d]pyrimidin-1-yl)-propionamide]",,200,

# More lines, main results first:
EC50 [1] [nM],EC50 [3] [nM],SMILES,also measured
80,,"O=C(CCn1c2c(c(=O)[nH]c1=O)CSCC2)NCC(=O)c1ccc2ccccc2c1 [3-(2,4-Dioxo-3,4,7,8-tetrahydro-2H,5H-thiopyrano[4,3-d]pyrimidin-1-yl)-N-(2-naphthalen-2-yl-2-oxo-ethyl)-propionamide]",
100,,"O=C(CCn1c2c(c(=O)[nH]c1=O)CSCC2)NCC(=O)N1CCN(c2ccccn2)CC1 [3-(2,4-Dioxo-3,4,7,8-tetrahydro-2H,5H-thiopyrano[4,3-d]pyrimidin-1-yl)-N-[2-oxo-2-(4-pyridin-2-yl-piperazin-1-yl)-ethyl]-propionamide]",
70,,"Nc1cccc(-c2ccc(C(=O)CNC(=O)CCn3c4c(c(=O)[nH]c3=O)CSCC4)cc2)c1 [N-[2-(3'-Amino-biphenyl-4-yl)-2-oxo-ethyl]-3-(2,4-dioxo-3,4,7,8-tetrahydro-2H,5H-thiopyrano[4,3-d]pyrimidin-1-yl)-propionamide]",
,3500,"O=C(CCn1c2c(c(=O)[nH]c1=O)CSCC2)NCC(=O)c1cccc(Br)c1 [N-[2-(3-Bromo-phenyl)-2-oxo-ethyl]-3-(2,4-dioxo-3,4,7,8-tetrahydro-2H,5H-thiopyrano[4,3-d]pyrimidin-1-yl)-propionamide]",
500,,"O=C(CCn1c2c(c(=O)[nH]c1=O)CSCC2)NCC(=O)c1ccc(Cl)cc1 [N-[2-(4-Chloro-phenyl)-2-oxo-ethyl]-3-(2,4-dioxo-3,4,7,8-tetrahydro-2H,5H-thiopyrano[4,3-d]pyrimidin-1-yl)-propionamide]",
700,,"Nc1cccnc1N1CCN(C(=O)CNC(=O)CCn2c3c(c(=O)[nH]c2=O)CSCC3)CC1 [N-{2-[4-(3-Amino-pyridin-2-yl)-piperazin-1-yl]-2-oxo-ethyl}-3-(2,4-dioxo-3,4,7,8-tetrahydro-2H,5H-thiopyrano[4,3-d]pyrimidin-1-yl)-propionamide]",
